Reference: patent US20250270246A1, “LINCOSAMIDES AND USES THEREOF” (President and Fellows of Harvard College, priority 2022, published 2025)
Counter-ions that a name gives are not always drawn. Like-named read-outs stand apart in the source and are kept apart here.

Tests used:
[1] = rcm bond, Grubbs II (20 mol%)/benzoquinone, toluene
[2] = test system: A. baumannii ATCC 19606 (HAV#010); test: MIC by broth microdilution (CLSI); assay type: cell-based; details: Acinetobacter baumannii, ATCC19606, 24 h, HAV#010, ATCC 19606; CaMHB, 24 h incubation; read-out: MIC A. baumannii ATCC 19606
In short: (§1)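 Strains were grown overnight on blood agar at 35° C, suspended in CaMHB to 0.5 McFarland, then diluted to 5×10^5 CFU/mL. Compounds (64-0.06 μg/mL, 2.5% final DMSO) were tested by CLSI microdilution. Visible growth was scored after 24 h.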

[3] = test system: E. coli ATCC 25922 (HAV#006); test: MIC by broth microdilution (CLSI); assay type: cell-based; details: Escherichia coli, ATCC25922, 24 h, read-out: MIC E. coli ATCC 25922
In short: as §1

E. coli HAV#038, ΔTolC = test: MIC by broth microdilution (CLSI); assay type: cell-based; details: Escherichia coli, 24 h, read-out: MIC E. coli HAV#038, ΔTolC
In short: as §1

E. coli HAV#040, LptD = test: MIC by broth microdilution (CLSI); assay type: cell-based; details: Escherichia coli, 24 h, read-out: MIC E. coli HAV#040, LptD
In short: as §1

[4] = test system: E. faecium HAV#318, VRE; clinical; test: MIC by broth microdilution (CLSI); assay type: cell-based; details: Enterococcus faecium, CaMHB, 24 h incubation, read-out: MIC E. faecium HAV#318, VRE
In short: as §1

[5] = test system: K. pneumoniae HAV#402, FQ-R; test: MIC by broth microdilution (CLSI); assay type: cell-based; details: Klebsiella pneumoniae; FQ-R; CaMHB, 24 h incubation; read-out: MIC K. pneumoniae HAV#402, FQ-R
In short: as §1

[6] = test system: S. aureus ATCC 29213 (HAV#001); test: MIC by broth microdilution (CLSI); assay type: cell-based; details: Staphylococcus aureus, ATCC29213, 24 h, read-out: MIC S. aureus ATCC 29213
In short: as §1

[7] = test system: S. aureus HAV#031, c-ermA; test: MIC by broth microdilution (CLSI); assay type: cell-based; details: Staphylococcus aureus; c-ermA; CaMHB, 24 h incubation; read-out: MIC S. aureus HAV#031, c-ermA
In short: as §1

S. aureus HAV#216, cfr = test: MIC by broth microdilution (CLSI); assay type: cell-based; details: Staphylococcus aureus; cfr; CaMHB, 24 h incubation; read-out: MIC S. aureus HAV#216, cfr
In short: as §1

[8] = test system: E. faecalis ATCC 29212 (HAV#005); test: MIC by broth microdilution (CLSI); assay type: cell-based; details: Enterococcus faecalis, ATCC29212, 24 h, read-out: MIC E. faecalis ATCC 29212
In short: as §1

E. coli Clinical (armA) = test: MIC by broth microdilution (CLSI); assay type: cell-based; details: Escherichia coli, 24 h, read-out: MIC E. coli Clinical (armA)
In short: as §1

E. coli lptD mutant = test: MIC by broth microdilution (CLSI); assay type: cell-based; details: Escherichia coli, 24 h, read-out: MIC E. coli lptD mutant, lptD mutant / ΔlptD mutant; CaMHB, 24 h incubation
In short: as §1

E. coli ΔtolC = test: MIC by broth microdilution (CLSI); assay type: cell-based; details: Escherichia coli, 24 h, read-out: MIC E. coli ΔtolC, ΔtolC; CaMHB, 24 h incubation
In short: as §1

K. pneumoniae JMI-991193 = test: MIC by broth microdilution (CLSI); assay type: cell-based; details: Klebsiella pneumoniae, JMI991193, 24 h, read-out: MIC K. pneumoniae JMI-991193
In short: as §1

S. aureus Clinical (cfr) = test: MIC by broth microdilution (CLSI); assay type: cell-based; details: Staphylococcus aureus, 24 h, read-out: MIC S. aureus Clinical (cfr)
In short: as §1

S. aureus MMX 3035 = test: MIC by broth microdilution (CLSI); assay type: cell-based; details: Staphylococcus aureus, MMX3035, 24 h, read-out: MIC S. aureus MMX 3035
In short: as §1

[9] = HAV#006, ATCC 25922, CaMHB, 24 h incubation
[10] = HAV#001, ATCC 29213, CaMHB, 24 h incubation
[11] = HAV#005, ATCC 29212, CaMHB, 24 h incubation

SMILES | MIC [2] | MIC [3, 9] | MIC (E. coli HAV#038, ΔTolC) | MIC (E. coli HAV#040, LptD) | MIC [5] | MIC [6, 10] | MIC [7] | MIC (S. aureus HAV#216, cfr) | MIC [3] | MIC (E. coli Clinical (armA)) | MIC (E. coli lptD mutant) | MIC (E. coli ΔtolC) | MIC [8] | MIC (K. pneumoniae JMI-991193) | MIC [6] | MIC (S. aureus Clinical (cfr)) | MIC (S. aureus MMX 3035) | also measured
C[C@@H]1/C=C\CCS[C@H]2O[C@H]([C@@H]1N[S@](=O)C(C)(C)C)[C@H](OC(=O)c1ccccc1)[C@H](OC(=O)c1ccccc1)[C@H]2OC(=O)c1ccccc1 |  |  |  |  |  |  |  |  |  |  |  |  |  |  |  |  |  | ring closure, isolated yield ([1]; from C=CCCS[C@H]1O[C@H]([C@H](N[S@](=O)C(C)(C)C)[C@H](C)C=C)[C@H](OC(=O)c2ccccc2)[C@H](OC(=O)c2ccccc2)[C@H]1OC(=O)c1ccccc1, 10-membered ring, 0.2 mM, 0.33 h): 19%
C[C@H]1/C=C/CCS[C@H]2O[C@H]([C@@H]1N[S@](=O)C(C)(C)C)[C@H](OC(=O)c1ccccc1)[C@H](OC(=O)c1ccccc1)[C@H]2OC(=O)c1ccccc1 |  |  |  |  |  |  |  |  |  |  |  |  |  |  |  |  |  | ring closure, isolated yield ([1]; from C=CCCS[C@H]1O[C@H]([C@H](N[S@](=O)C(C)(C)C)[C@@H](C)C=C)[C@H](OC(=O)c2ccccc2)[C@H](OC(=O)c2ccccc2)[C@H]1OC(=O)c1ccccc1, 10-membered ring, 0.2 mM, 0.33 h): 6%
CC(=O)O[C@@H]1[C@H](OC(C)=O)[C@@H](OC(C)=O)[C@@H]2O[C@@H]1[C@H](N[S@](=O)C(C)(C)C)C(C)/C=C/CCCS2 (mixture of isomers) |  |  |  |  |  |  |  |  |  |  |  |  |  |  |  |  |  | ring closure, isolated yield ([1]; from C=CCCCS[C@H]1O[C@H]([C@H](N[S@](=O)C(C)(C)C)[C@H](C)C=C)[C@H](OC(C)=O)[C@H](OC(C)=O)[C@H]1OC(C)=O, 11-membered ring, 1.9 mM, 0.25 h): 85%
CC(C)C[C@@H]1CCO[C@@H]2[C@H](CN[C@@H]2C(=O)N[C@H]2[C@H]3OC(SC/C=C/CC2(C)C)[C@H](O)C(O)C3O)C1 (single isomer, unassigned) [FSA1504066A, formate salt] | 8 µg/mL | 32 µg/mL | 1 µg/mL | 2 µg/mL | 32 µg/mL | ≤ 0.06 µg/mL | 4 µg/mL | > 64 µg/mL |  |  |  |  |  |  |  |  |  | MIC [4]: 1 µg/mL
CC(C)C[C@@H]1CCO[C@@H]2[C@H](CN[C@@H]2C(=O)N[C@H]2C3OC(SC/C=C\CC2(C)C)C(O)C(O)C3O)C1 (single isomer, unassigned) [FSA1504066B, formate salt] | 64 µg/mL | 64 µg/mL | 32 µg/mL | 64 µg/mL | 64 µg/mL | 0.5 µg/mL | 32 µg/mL | > 64 µg/mL |  |  |  |  |  |  |  |  |  | MIC [4]: 4 µg/mL
CC(C)C[C@@H]1CCO[C@@H]2[C@H](CN[C@@H]2C(=O)N[C@@H]2CC(C)(C)/C=C/CS[C@H]3O[C@H]2[C@H](O)[C@H](O)[C@H]3O)C1 [FSA1503085, (4S,5aS,8S,8aR)-4-isobutyl-N-((1R,8R,9R,10R,11S,12R,E)-10,11,12-trihydroxy-6,6-dimethyl-13-oxa-2-thiabicyclo[7.3.1]tridec-4-en-8-yl) octahydro-2H-oxepino[2,3-c]pyrrole-8-carboxamide formate salt] | 64 µg/mL | 64 µg/mL | 4 µg/mL | 8 µg/mL | > 64 µg/mL | 0.25 µg/mL | 32 µg/mL | 8 µg/mL |  |  |  |  |  |  |  |  |  | MIC [8, 11]: 0.25 µg/mL
CC(C)C[C@@H]1CCO[C@@H]2[C@H](CN[C@@H]2C(=O)N[C@H]2[C@H]3O[C@H](SCCCCC2(C)C)[C@H](O)[C@@H](O)[C@H]3O)C1 [FSA1504068, (4S,5aS,8S,8aR)-4-isobutyl-N-((1R,8R,9R,10R,11S,12R)-10,11,12-trihydroxy-7,7-dimethyl-13-oxa-2-thiabicyclo[7.3.1]tridecan-8-yl) octahydro-2H-oxepino[2,3-c]pyrrole-8-carboxamide formate salt] | > 64 µg/mL | 64 µg/mL | 32 µg/mL | 64 µg/mL | > 64 µg/mL | 0.5 µg/mL | > 64 µg/mL | > 64 µg/mL |  |  |  |  |  |  |  |  |  | MIC [8, 11]: 2 µg/mL
CC(C)C[C@@H]1CCO[C@@H]2[C@H](CN[C@@H]2C(=O)N[C@@H]2C/C=C\C[C@H](CN)S[C@H]3O[C@H]2[C@H](O)[C@H](O)[C@H]3O)C1 [FSA1608082, (4S,5aS,8S,8aR)—N-((1R,3R,8R,9R,10R,11S,12R,Z)-3-(aminomethyl)-10,11,12-trihydroxy-13-oxa-2-thiabicyclo[7.3.1]tridec-5-en-8-yl)-4-isobutyloctahydro-2H-oxepino[2,3-c]pyrrole-8-carboxamide hydrochloride salt] |  |  |  |  |  |  |  |  | 32 µg/mL | 64 µg/mL | 1 µg/mL | 2 µg/mL | 2 µg/mL | > 64 µg/mL | 1 µg/mL | 16 µg/mL | 16 µg/mL | 
CC(C)C[C@@H]1CCO[C@@H]2[C@H](CN[C@@H]2C(=O)N[C@@H]2C/C=C\C[C@@H](CN)S[C@H]3O[C@H]2[C@H](O)[C@H](O)[C@H]3O)C1 [FSA1608083, (4S,5aS,8S,8aR)—N-((1R,3S,8R,9R,10R,11S,12R,Z)-3-(aminomethyl)-10,11,12-trihydroxy-13-oxa-2-thiabicyclo[7.3.1]tridec-5-en-8-yl)-4-isobutyloctahydro-2H-oxepino[2,3-c]pyrrole-8-carboxamide hydrochloride salt] |  |  |  |  |  |  |  |  | 16 µg/mL | 64 µg/mL | 1 µg/mL | 2 µg/mL | 1 µg/mL | > 64 µg/mL | 1 µg/mL | 32 µg/mL | 16 µg/mL | 
CC(C)C[C@@H]1CCO[C@@H]2[C@H](CN[C@@H]2C(=O)N[C@@H]2C/C=C\C[C@@H](CNC(=O)c3ccc(F)cc3)S[C@H]3O[C@H]2[C@H](O)[C@H](O)[C@H]3O)C1 [FSA1608088, (4S,5aS,8S,8aR)—N-((1R,3S,8R,9R,10R,11S,12R,Z)-3-((4-fluorobenzamido)methyl)-10,11,12-trihydroxy-13-oxa-2-thiabicyclo[7.3.1]tridec-5-en-8-yl)-4-isobutyloctahydro-2H-oxepino[2,3-c]pyrrole-8-carboxamide formate salt] |  |  |  |  |  |  |  |  | 8 µg/mL | 16 µg/mL | 0.5 µg/mL | 2 µg/mL | 1 µg/mL | 32 µg/mL | 1 µg/mL | 8 µg/mL | 8 µg/mL | 
CC(C)C[C@@H]1CCO[C@@H]2[C@H](CN[C@@H]2C(=O)N[C@@H]2C/C=C\C[C@H](CNC(=O)c3ccc(F)cc3)S[C@H]3O[C@H]2[C@H](O)[C@H](O)[C@H]3O)C1 [FSA1608089, (4S,5aS,8S,8aR)—N-((1R,3R,8R,9R,10R,11S,12R,Z)-3-((4-fluorobenzamido)methyl)-10,11,12-trihydroxy-13-oxa-2-thiabicyclo[7.3.1]tridec-5-en-8-yl)-4-isobutyloctahydro-2H-oxepino[2,3-c]pyrrole-8-carboxamide formate salt] |  |  |  |  |  |  |  |  | 16 µg/mL | 64 µg/mL | 1 µg/mL | 2 µg/mL | 1 µg/mL | > 64 µg/mL | 2 µg/mL | 8 µg/mL | 8 µg/mL | 
CC(C)C[C@@H]1CCO[C@@H]2[C@H](CN[C@@H]2C(=O)N[C@H]2[C@H]3O[C@H](S[C@H](CF)C/C=C\[C@H]2C)[C@H](O)[C@@H](O)[C@H]3O)C1 [FSA1609034, (4S,5aS,8S,8aR)—N-((1R,3S,7R,8R,9R,10R,11S,12R,Z)-3-(fluoromethyl)-10,11,12-trihydroxy-7-methyl-13-oxa-2-thiabicyclo[7.3.1]tridec-5-en-8-yl)-4-isobutyloctahydro-2H-oxepino[2,3-c]pyrrole-8-carboxamide formate salt] |  |  |  |  |  |  |  |  | 1 µg/mL | 2 µg/mL | 0.25 µg/mL | ≤ 0.06 µg/mL | ≤ 0.06 µg/mL | 2 µg/mL | ≤ 0.06 µg/mL | 0.25 µg/mL | 0.25 µg/mL | 
